According to patent US20250186442A1, “Obicetrapib and Ezetimibe Combination Treatment and Fixed Dose Pharmaceutical Compositions” (NewAmsterdam Pharma B.V., priority 2022, published 2025):

Key:
LDL-C [1] = experiment: ROSE2 phase 2b clinical trial - LDL-C; assay type: in vivo, human; conditions: ROSE2; ezetimibe added on top of obicetrapib
Procedure: The primary objective of this study is to evaluate the effect of obicetrapib 10 mg+ezetimibe 10 mg combination therapy compared with placebo, when used as an adjunct to high-intensity statin therapy, on LDL-C at Day 84.
The secondary objectives of this study include the following, in hierarchical order: • To evaluate the effect of obicetrapib 10 mg monotherapy compared with placebo, when used as an adjunct to high-intensity statin therapy, on LDL-C at Day 84; • To evaluate the effect of obicetrapib 10 mg+ezetimibe 10 mg combination therapy compared with placebo, when used as an adjunct to high-intensity statin therapy, on ApoB at Day 84; and • To evaluate the effect of obicetrapib 10 mg monotherapy compared with placebo, when used as an adjunct to high-intensity statin therapy, on ApoB at Day 84.
This study will be a placebo-controlled, double-blind, randomized, Phase 2 study to evaluate the efficacy, safety, and tolerability of obicetrapib 10 mg, both in combination with ezetimibe 10 mg and as monotherapy, as an adjunct to high-intensity statin therapy. This study will take place at approximately 20 sites in the United States.
Up to 2 weeks after the Screening Visit, participants will return to the site on Day 1 (Visit 2) and confirm study eligibility before being randomized and beginning treatment. Approximately 114 eligible participants (38 participants per treatment group) will be randomized in a 1:1:1 ratio to 1 of the following treatment groups: • Combination therapy: Obicetrapib 10 mg+ezetimibe 10 mg (administered as one 10 mg obicetrapib tablet and one 10 mg ezetimibe capsule); • Obicetrapib monotherapy: Obicetrapib 10 mg (administered as one 10 mg obicetrapib tablet and 1 placebo capsule); or • Placebo (administered as 1 placebo tablet and 1 placebo capsule).
During the 12-week Treatment Period, the assigned study drugs will be administered by the participants orally with water, once daily on Day 1 to Day 84 at approximately the same time each morning. Participants will return to the site on Day 28 (+2 days), Day 84 (+2 days), and Day 112 (+2 days) for efficacy, safety, and pharmacokinetic (PK) assessments. Participants, Investigators, the Clinical Research Organization (CRO), and the Sponsor will be blinded to all lipid results from Day 1 (Visit 2) for the first participant until all enrolled participants complete the Day 84 (End of Treatment) visit or are withdrawn from the study, in order to protect blinding to treatment assignment.
The primary efficacy endpoint is the percent change from Day 1 to Day 84 in LDL-C for the obicetrapib 10 mg+ezetimibe 10 mg combination treatment group compared with the placebo group.
The secondary efficacy endpoints include the following, in hierarchical order: • Percent change from Day 1 to Day 84 in LDL-C for the obicetrapib 10 mg monotherapy • treatment group compared with the placebo group; • Percent change from Day 1 to Day 84 in ApoB for the obicetrapib 10 mg+ezetimibe 10 mg • combination treatment group compared with the placebo group; and • Percent change from Day 1 to Day 84 in ApoB for the obicetrapib 10 mg monotherapy treatment group compared with the placebo group.
The exploratory efficacy endpoints include the following: • Percent change from Day 1 to Day 84 in non-HDL-C, VLDL-C, HDL-C, TG, ApoE, Lp(a), and HDL-ApoE for the obicetrapib 10 mg+ezetimibe 10 mg combination treatment group compared with the placebo group and for the obicetrapib 10 mg monotherapy treatment group compared with the placebo group; and • Proportion of participants at Day 84 that achieve LDL-C<2.6 mmol/L (<100 mg/dL), LDL-C<1.8 mmol/L (<70 mg/dL), and LDL-C<1.3 mmol/L (<50 mg/dL) for the obicetrapib 10 mg+ezetimibe 10 mg combination treatment group compared with the placebo group and for the obicetrapib 10 mg monotherapy treatment group compared with the placebo group. […]

[2] = in water; cited from earlier work
LDL-C [3] = conditions: cited from earlier work
[4] = Stability study at 70° C./75% RH (XRPD physical stability, HPLC purity); assay type: physicochemical; conditions: 70° C. at 75% relative humidity
From the text: FIG. 54 is a plot of x-ray powder diffraction pattern taken of crystalline obicetrapib hemicalcium, and FIG. 55 is a plot of x-ray powder diffraction patterns taken of crystalline obicetrapib hemicalcium under stress conditions. In FIG. 55, there are four diffraction patterns shown based on stability study set forth in Example 11.27. Pattern 1 is an x-ray powder diffraction pattern of a sample of amorphous obicetrapib hemicalcium. Pattern 2 is the x-ray powder diffraction pattern of a sample of crystalline obicetrapib hemicalcium. In pattern 3, the sample of crystalline obicetrapib hemicalcium was exposed to 70° C. at 75% relative humidity for one day. […] Pattern 1 was taken before the sample was placed on stability.
Stability study was conducted on crystalline and amorphous forms of obicetrapib at 70° C./75% relative humidity (RH). The solids were placed into a 4.0 ml glass vial without caps (open condition) and stored at 70° C./75% RH. Samples were pulled out of the stability chamber at day 1 (24 hours) and at 7-day time point. The solids were analyzed by XRPD for physical stability and by HPLC for chemical purity. The sample collected at each time point was dissolved in methanol before HPLC analysis. In order to minimize the effect of potential analyte adsorption on the filter, the initial 0.5 mL of supernatant passing through the filter was discarded prior to collecting sample for HPLC analysis. Purity for each sample was determined based on peak area percent and compared to the sample at T=0.

[5] = Moisture uptake at high relative humidity (hygroscopicity); assay type: physicochemical; conditions: relative humidities approaching 90%
From the text: When exposed to relative humidities approaching 90%, moisture uptake has been measured to be typically less than about 5% for example. […] Other drawbacks commonly associated with manufacturing and using amorphous materials are similarly not present. For example, amorphous materials are often challenging to make chemically pure.

Structure (SMILES) | additional/incremental (median) reduction of LDL-C (LDL-C [1]) | solubility [2] | incremental reduction in LDL-C levels (LDL-C [3]; ezetimibe in combination with statins (Catapano et al. 2016)) | LDL-C levels reduced (LDL-C [3]; ezetimibe mono-therapy, hyperlipidemic patients (Catapano et al. 2016)) | mean reduction in LDL-C compared with placebo (LDL-C [3]; ezetimibe monotherapy, hypercholesterolemia, meta-analysis of 8 randomized studies) [%] | greater reduction in LDL-C compared with statin alone (LDL-C [3]; statin and ezetimibe in combination, meta-analysis of 27 studies) [%] | physical stability by x-ray powder diffraction ([4]; 7 days) | physical stability by x-ray powder diffraction ([4]; 14 days) | moisture uptake [5]
O=C1[C@H](CC[C@H](O)c2ccc(F)cc2)[C@@H](c2ccc(O)cc2)N1c1ccc(F)cc1 [Ezetimibe, (3R,4S)-1-(4-fluorophenyl)-3-[(3S)-3-(4-fluorophenyl)-3-hydroxypropyl]-4-(4-hydroxyphenyl)azetidin-2-one] | about 32% | practically insoluble | 15-20% | 15-22% | 18.58 | 15.1 |  |  | 
CCOC(=O)N1c2ccc(C(F)(F)F)cc2[C@@H](N(Cc2cc(C(F)(F)F)cc(C(F)(F)F)c2)c2ncc(OCCCC(=O)O)cn2)C[C@H]1CC [amorphous obicetrapib hemicalcium] |  |  |  |  |  |  | remained amorphous | remained amorphous | less than 5%
